Results from article PMC4109017 (Nature Communications, 2014).

How the values were obtained:
[1] = biological target: FALDH Q445X (without gatekeeper helix) (Homo sapiens, UniProt P51648); test: fluorometric NADH formation, Michaelis-Menten fit; format: biochemical; details: 1 mM NAD, 25 mM sodium pyrophosphate pH 8.0, 0.1% Triton X-100, 37 °C
FALDH (K463X) = FALDH (K463X) (Homo sapiens, UniProt P51648); test: fluorometric NADH formation, Michaelis-Menten fit; format: biochemical; details: 1 mM NAD, 25 mM sodium pyrophosphate pH 8.0, 0.1% Triton X-100, 37 °C
Sequence of FALDH (K463X) (P51648 1-462): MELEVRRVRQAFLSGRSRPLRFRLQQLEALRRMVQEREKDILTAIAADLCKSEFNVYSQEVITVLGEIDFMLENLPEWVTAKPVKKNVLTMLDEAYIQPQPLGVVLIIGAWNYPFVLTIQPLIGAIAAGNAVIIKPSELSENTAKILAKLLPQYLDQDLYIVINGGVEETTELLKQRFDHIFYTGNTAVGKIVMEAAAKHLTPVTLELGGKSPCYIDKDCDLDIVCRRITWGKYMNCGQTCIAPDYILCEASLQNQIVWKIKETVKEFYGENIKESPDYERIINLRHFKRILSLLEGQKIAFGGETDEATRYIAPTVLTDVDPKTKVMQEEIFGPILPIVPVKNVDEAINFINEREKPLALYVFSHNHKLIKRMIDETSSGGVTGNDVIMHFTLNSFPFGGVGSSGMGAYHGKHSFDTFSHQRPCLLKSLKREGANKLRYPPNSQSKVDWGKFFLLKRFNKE

Sequence of FALDH Q445X (without gatekeeper helix) (P51648 1-444): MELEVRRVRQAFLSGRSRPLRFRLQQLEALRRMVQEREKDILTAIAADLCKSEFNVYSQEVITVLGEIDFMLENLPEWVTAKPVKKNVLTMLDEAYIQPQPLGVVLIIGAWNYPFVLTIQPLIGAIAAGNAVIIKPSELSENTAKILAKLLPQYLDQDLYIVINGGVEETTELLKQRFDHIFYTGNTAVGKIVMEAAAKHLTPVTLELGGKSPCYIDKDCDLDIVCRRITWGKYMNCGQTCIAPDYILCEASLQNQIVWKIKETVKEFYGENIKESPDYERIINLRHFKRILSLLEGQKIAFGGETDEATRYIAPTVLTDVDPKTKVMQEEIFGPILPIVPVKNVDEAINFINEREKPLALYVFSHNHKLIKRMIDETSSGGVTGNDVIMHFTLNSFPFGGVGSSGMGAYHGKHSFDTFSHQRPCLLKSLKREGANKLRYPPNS

In the case of `CCCCCCCCCCCC=O` [dodecanal], the Vmax/KM [1] is reported as “longer fatty aldehydes docecanal (C12) and hexadecanal (C16) were used as substrates” and the Vmax/KM (FALDH (K463X)) is reported as “metabolize octanal, dodecanal and hexadecanal”.
With `CCCCCCCCCCCCCCCC=O` [hexadecanal] the Vmax/KM (FALDH (K463X)) was “metabolize octanal, dodecanal and hexadecanal”.
